Experimental data taken from patent US20060275362A1, “Rapidly-dissolving pharmaceutical composition for inhibiting ovulation” (priority 2005, published 2006).

Assay: Effect of Tween 80 on the solubility of drospirenone in water
Format: physicochemical
Conditions: Solubility enhancer Tween 80 (Polysorbate 80), drug:enhancer 1:9 parts by weight, agitated approximately 22 hours, versus water alone

SMILES: C[C@]12CCC(=O)C=C1[C@@H]1C[C@@H]1[C@H]1[C@@H]3[C@@H]4C[C@@H]4[C@@]4(CCC(=O)O4)[C@@]3(C)CC[C@@H]12 [Drospirenone, (2′S, 6R, 7R, 8R, 9S, 10R, 13S, 14S, 15S, 16S)-1,3′, 4′, 6,7,8,9, 10, 11, 12, 13, 14, 15, 16, 20, 21-hexadecahydro-10, 13-dimethylspiro[17H-dicyclopropa[6,7:15,16]cyclopenta[a]phenanthrene-17,2′(5′H)-furan]-3,5′(2H)-dione]
- % Increase in the Solubility of Drospirenone as Determined by HPLC: 42%
